What all share (type): cell-based
Assay [1] has as its system colorectal cancer cell line HT-29 cells. As to the kind of experiment: Growth inhibitory effect against cancer cell lines (3H-thymidine uptake), HT-29. The note with it: Homo sapiens, HT-29, inhibition of 3H-thymidine uptake; test substance 18 hrs, then 3H-thymidine 6 hrs; triplicate. In outline:
(§1)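 Cells seeded at 1.0×10^4/well, grown 24 hrs, then exposed to compound in DMSO for 18 hrs before 6 hrs pulse with ^3H-thymidine (0.25 μCi/well). Harvested cell-incorporated radioactivity counted; IC50 is the concentration halving uptake versus DMSO control, triplicate.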

Assay [2] concerns ACHN cells or HT-29 cells. Nature of the assay: Cell cycle analysis (flow cytometry, CycleTEST PLUS). Conditions: test substance less than 10 μM, 24 hrs, compared to DMSO, n=2, read-out: CELL RATIO OF G0/G1 PHASE. The protocol:
ACHN cells or HT-29 cells were cultured in a 6 well plate at 2.5×10^5 cells/1.8 mL/well for 24 hrs, then a test substance (less than 10 μM) dissolved in DMSO was added. After 24 hrs, cells were detached using trypsin-EDTA and the DNA content of single cell was analyzed by flow cytometry method using a CycleTEST PLUS (BECKTON DICKINSON) kit, and the proportion of the cells in the G0/G1 phase·S phase·G2/M phase was calculated. As a control, DMSO was used and the test was performed with n=2.

In the next assay the test system is p15 protein. Nature of the assay: Evaluation of p15 induction activity (Western blotting). Conditions: test substance 0.1 μM, 24 hrs, ACHN cells or HT-29 cells, compared to DMSO, n=2. The method, boiled down:
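p15 protein quantified by densitometry of anti-p15 Western blots (10 μg protein per lane, mean of n=2). Samples came from HT-29 or ACHN cells given 0.1 μM compound for 24 h after 24 h plating, with DMSO as control.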
For orientation: In western blotting, separated proteins are transferred to a membrane and probed.

Assay [3] concerns Renal cancer cell line ACHN cell. Nature of the assay: Growth inhibitory effect against cancer cell lines (3H-thymidine uptake), ACHN. The note with it: Homo sapiens, ACHN. In outline: as §1
For another assay, the system named is p27 protein. As to the kind of experiment: p27 protein induction test (Western blotting). The note with it: test substance (0.1 1M), 24 hrs, ACHN cells or HT-29 cells, compared to DMSO, n=2. In outline:
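ACHN or HT-29 cells grown 24 h, then treated with test substance at […] (DMSO) for 24 h. Lysates normalised by protein content and probed by Western blot with anti-p27 antibody. Band density quantified by densitometer against DMSO control, n=2 averaged.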

The results in this text go back to US20180273531A1, “PYRIMIDINE COMPOUND AND MEDICAL USE THEREOF” (Japan Tobacco Inc., priority 2004, published 2018).

A value given as a limit tells only on which side of the number the result lay.

Usually IC50 stands for the point on the concentration scale where inhibition reaches its midpoint. Low values mean higher potency, high ones lower potency. Turning to `Cn1c(=O)cc(Nc2ccc(Cl)cc2)c2c(=O)n(-c3ccccc3)c(=O)n(-c3ccccc3)c21` [Example 1-2], the IC50 in assay [1] fell in the range of 100 to 1000 nM. Besides, the fold induction in assay [2] is ≥ 1.2.

Regarding `Cn1c(=O)cc(Nc2ccccc2Cl)c2c(=O)n(-c3ccccc3)c(=O)n(-c3ccccc3)c21` [Example 1-4], the fold induction in assay [2] is ≥ 1.2. The fold induction at 0.1 µM in the assay with p15 protein is ≥ 1.5.

`Cc1ccc(Nc2cc(=O)n(C)c3c2c(=O)n(-c2ccccc2)c(=O)n3-c2ccccc2)cc1` [Example 1-6]: in assay [2], the fold induction was ≥ 1.2. In addition, in the assay with p15 protein, the fold induction at 0.1 µM is ≥ 1.5.

In assay [1], `CN(C)c1ccc(Nc2cc(=O)n(C)c3c2c(=O)n(-c2ccccc2)c(=O)n3-c2ccccc2)cc1` [Example 1-7] displayed an IC50 of 100 to 1000 nM. For the same compound, the fold induction in assay [2] is ≥ 1.2. Also, the fold induction at 0.1 µM in the assay on p15 protein was ≥ 1.5.

Regarding `COc1ccc(Nc2cc(=O)n(C)c3c2c(=O)n(-c2ccccc2)c(=O)n3-c2ccccc2)cc1` [Example 1-9], the fold induction in assay [2] is ≥ 1.2. For the same compound, the fold induction at 0.1 µM in the assay with p15 protein is ≥ 1.5.

Regarding `Cn1c(=O)cc(Nc2ccc(Br)cc2)c2c(=O)n(-c3ccccc3)c(=O)n(-c3ccccc3)c21` [Example 1-11], the half-inhibitory concentration (IC50) in assay [1] lay within 100 to 1000 nM. The fold induction in assay [2] is ≥ 1.2. The fold induction at 0.1 µM in the assay on p15 protein is ≥ 1.5.

Turning to `CCc1ccc(Nc2cc(=O)n(C)c3c2c(=O)n(-c2ccccc2)c(=O)n3-c2ccccc2)cc1` [Example 1-21], the fold induction in assay [2] was ≥ 1.2.

Turning to `CC(C)c1ccc(Nc2cc(=O)n(C)c3c2c(=O)n(-c2ccccc2)c(=O)n3-c2ccccc2)cc1` [Example 1-25], the fold induction in assay [2] is ≥ 1.2.

Regarding `Cn1c(=O)cc(Nc2ccc(Cl)cc2Cl)c2c(=O)n(-c3ccccc3)c(=O)n(-c3ccccc3)c21` [Example 1-26], in assay [2], the fold induction is ≥ 1.2. Moreover, the fold induction at 0.1 µM in the assay on p15 protein was ≥ 1.5.

For `Cn1c(=O)cc(Nc2ccc(C(F)(F)F)cc2)c2c(=O)n(-c3ccccc3)c(=O)n(-c3ccccc3)c21` [Example 1-33], in assay [2], the fold induction is ≥ 1.2. The fold induction at 0.1 µM in the assay on p15 protein was ≥ 1.5.

As for `Cc1ccc(Nc2cc(=O)n(C)c3c2c(=O)n(-c2ccccc2)c(=O)n3-c2ccccc2)c(Cl)c1` [Example 1-34], the fold induction in assay [2] is ≥ 1.2. For the same compound, the fold induction at 0.1 µM in the assay on p15 protein was ≥ 1.5.

On to `CCc1ccccc1Nc1cc(=O)n(C)c2c1c(=O)n(-c1ccccc1)c(=O)n2-c1ccccc1` [Example 1-38], for which, in assay [2], the fold induction is ≥ 1.2. Further, in the assay with p15 protein, the fold induction at 0.1 µM was ≥ 1.5.

`Cc1c(Nc2ccc(Cl)cc2)c2c(=O)n(-c3ccccc3)c(=O)n(-c3ccccc3)c2n(C)c1=O` [Example 1-43]: the fold induction in assay [2] is ≥ 1.2. Moreover, in the assay with p15 protein, the fold induction at 0.1 µM is ≥ 1.5.

Take `CNc1ccc(Nc2cc(=O)n(C)c3c2c(=O)n(-c2ccccc2)c(=O)n3-c2ccccc2)cc1` [Example 1-49]: in assay [2], the fold induction is ≥ 1.2. In the assay with p15 protein, the fold induction at 0.1 µM is ≥ 1.5.

As to `CCCc1ccccc1Nc1cc(=O)n(C)c2c1c(=O)n(-c1ccccc1)c(=O)n2-c1ccccc1` [Example 1-50], the fold induction in assay [2] is ≥ 1.2.

With `CCCCc1ccccc1Nc1cc(=O)n(C)c2c1c(=O)n(-c1ccccc1)c(=O)n2-c1ccccc1` [Example 1-51], the fold induction in assay [2] is ≥ 1.2. Further, the fold induction at 0.1 µM in the assay on p15 protein was ≥ 1.5.

For `Cc1cc(N(C)C)ccc1Nc1cc(=O)n(C)c2c1c(=O)n(-c1ccccc1)c(=O)n2-c1ccccc1` [Example 1-55], the IC50 in assay [1] is 100 to 1000 nM. Further, the fold induction in assay [2] is ≥ 1.2. Moreover, the fold induction at 0.1 µM in the assay with p15 protein was ≥ 1.5.

Take `Cn1c(=O)cc(Nc2ccc(Cl)cc2)c2c(=O)n(-c3ccsc3)c(=O)n(-c3ccsc3)c21` [Example 1-77]: the fold induction in assay [2] is ≥ 1.2. The fold induction at 0.1 µM in the assay on p15 protein is ≥ 1.5.

As for `CCn1c(=O)c2c(Nc3ccc(Cl)cc3)cc(=O)n(C)c2n(-c2ccccc2)c1=O` [Example 1-78], in assay [2], the fold induction was ≥ 1.2. Moreover, the fold induction at 0.1 µM with p15 protein is ≥ 1.5.

`Cn1c(=O)cc(Nc2ccc(Cl)cc2)c2c(=O)n(C3CC3)c(=O)n(-c3ccccc3)c21` [Example 1-84]: in assay [2], the fold induction was ≥ 1.2. The fold induction at 0.1 µM in the assay on p15 protein is ≥ 1.5.

In the case of `Cc1ccccc1-n1c(=O)n(C)c(=O)c2c(Nc3ccc(Cl)cc3)cc(=O)n(C)c21` [Example 1-85], the fold induction in assay [2] is ≥ 1.2. Moreover, the fold induction at 0.1 µM in the assay on p15 protein was ≥ 1.5.

For the compound `Cc1cccc(-n2c(=O)n(C)c(=O)c3c(Nc4ccc(Cl)cc4)cc(=O)n(C)c32)c1` [Example 1-86], the fold induction in assay [2] was ≥ 1.2. In the assay with p15 protein, the fold induction at 0.1 µM is ≥ 1.5.

In the case of `CN(C)c1ccc(Nc2cc(=O)n(C)c3c2c(=O)n(C2CC2)c(=O)n3-c2ccccc2)cc1` [Example 1-88], the IC50 in assay [1] and in assay [3] was 100 to 1000 nM in each case. Moreover, the fold induction in assay [2] was ≥ 1.2. The fold induction at 0.1 µM with p15 protein is ≥ 1.5.

`Cn1c(=O)cc(Nc2ccc(Cl)cc2)c2c(=O)n(CC(F)(F)F)c(=O)n(-c3ccccc3)c21` [Example 1-90]: the fold induction in assay [2] is ≥ 1.2.

With `CCCc1c(Nc2ccc(Cl)cc2)c2c(=O)n(-c3ccccc3)c(=O)n(-c3ccccc3)c2n(C)c1=O` [Example 1-91], the fold induction in assay [2] is ≥ 1.2.

`Cn1c(=O)cc(Nc2ccc(Br)cc2)c2c(=O)n(CC(F)(F)F)c(=O)n(-c3ccccc3)c21` [Example 1-92]: the fold induction in assay [2] is ≥ 1.2. Besides, the fold induction at 0.1 µM with p15 protein is ≥ 1.5.

For `CN(C)c1ccc(Nc2cc(=O)n(C)c3c2c(=O)n(CC(F)(F)F)c(=O)n3-c2ccccc2)cc1` [Example 1-93], the fold induction in assay [2] is ≥ 1.2. The fold induction at 0.1 µM with p15 protein is ≥ 1.5.

Turning to `CCn1c(=O)c2c(Nc3ccc(Cl)cc3)cc(=O)n(C)c2n(-c2ccc(Cl)cc2)c1=O` [Example 1-94], in assay [2], the fold induction at up to 10 µM is ≥ 1.2. For the same compound, the fold induction at 0.1 µM in the assay with p15 protein was ≥ 1.5.

In assay [1], `Cc1ccccc1-n1c(=O)n(C)c(=O)c2c(Nc3ccc(Br)cc3)cc(=O)n(C)c21` [Example 1-95] showed an IC50 of 100 to 1000 nM. Further, the fold induction in assay [2] was ≥ 1.2. Further, the fold induction at 0.1 µM in the assay on p15 protein is ≥ 1.5.

The compound `CCn1c(=O)c2c(Nc3ccc(N(C)C)cc3)cc(=O)n(C)c2n(-c2ccccc2)c1=O` [Example 1-97] came in with an IC50 in assay [1] of 100 to 1000 nM. Besides, the fold induction in assay [2] is ≥ 1.2. In the assay with p15 protein, the fold induction at 0.1 µM is ≥ 1.5.

`Cc1ccccc1-n1c(=O)n(C)c(=O)c2c(Nc3ccc(N(C)C)cc3)cc(=O)n(C)c21` [Example 1-99] registered an IC50 in assay [1] of 100 to 1000 nM. In assay [2], the fold induction was ≥ 1.2. For the same compound, the fold induction at 0.1 µM in the assay with p15 protein was ≥ 1.5.

As for `Cn1c(=O)cc(Nc2ccc(Cl)cc2)c2c(=O)n(C3CC3)c(=O)n(-c3ccccc3F)c21` [Example 1-100], the IC50 in assay [1] lay in the range of 100 to 1000 nM. The fold induction in assay [2] is ≥ 1.2. In addition, the fold induction at 0.1 µM in the assay with p15 protein is ≥ 1.5.

Regarding `Cn1c(=O)cc(Nc2ccc(Cl)cc2)c2c(=O)n(C3CC3)c(=O)n(-c3ccccc3C(F)(F)F)c21` [Example 1-101], the fold induction in assay [2] is ≥ 1.2.

Consider `Cc1ccccc1-n1c(=O)n(C2CC2)c(=O)c2c(Nc3ccc(Cl)cc3)cc(=O)n(C)c21` [Example 1-102], for which, in assay [2], the fold induction was ≥ 1.2. Besides, in the assay with p15 protein, the fold induction at 0.1 µM is ≥ 1.5.

As to `CCc1ccccc1-n1c(=O)n(C2CC2)c(=O)c2c(Nc3ccc(Cl)cc3)cc(=O)n(C)c21` [Example 1-103], in assay [2], the fold induction is ≥ 1.2. The fold induction at 0.1 µM in the assay with p15 protein was ≥ 1.5.

Take `COc1ccccc1-n1c(=O)n(C2CC2)c(=O)c2c(Nc3ccc(Cl)cc3)cc(=O)n(C)c21` [Example 1-104]: the fold induction in assay [2] was ≥ 1.2. Besides, in the assay on p15 protein, the fold induction at 0.1 µM is ≥ 1.5.

Take `Cc1c(=O)n(C)c(Nc2ccc(I)cc2F)c2c(=O)n(C3CC3)c(=O)n(-c3cccc(N4CCNC4=O)c3)c12` [Example 4-124]: the fold induction at 0.1 µM in the assay on p27 protein and with p15 protein was ≥ 1.5 each time. Moreover, the IC50 was < 10 nM in assay [1] and 10 to 100 nM in assay [3].

On to `Cc1c(=O)n(C)c(Nc2ccc(I)cc2F)c2c(=O)n(C3CC3)c(=O)n(-c3cccc(N4CCOC4=O)c3)c12` [Example 4-125], for which the fold induction at 0.1 µM in the assay on p27 protein and in the assay with p15 protein was ≥ 1.5 throughout. The IC50 in assay [1] and in assay [3] was < 10 nM throughout.

As to `Cc1c(=O)n(C)c(Nc2ccc(I)cc2F)c2c(=O)n(C3CC3)c(=O)n(-c3cccc(S(N)(=O)=O)c3)c12` [Example 4-127], the fold induction at 0.1 µM in the assay with p27 protein and in the assay with p15 protein was ≥ 1.5 throughout. The IC50 is < 10 nM in assay [1] and 10 to 100 nM in assay [3].

For the compound `Cc1c(=O)n(C)c(Nc2ccc(I)cc2F)c2c(=O)n(C3CC3)c(=O)n(-c3ccc4c(c3)NC(=O)C4(C)C)c12` [Example 4-128], the fold induction at 0.1 µM in the assay on p27 protein and in the assay on p15 protein was ≥ 1.5 each time. Further, the IC50 in assay [1] was < 10 nM; in assay [3], 10 to 100 nM.
